Results from ChEMBL document CHEMBL3856191, “Structural modifications at the 6-position of thieno[2,3-d]pyrimidines and their effects on potency at FLT3 for treatment of acute myeloid leukemia” (Eur J Med Chem, 2016).

How the values were obtained:
[1] = target: Mast/stem cell growth factor receptor Kit (Homo sapiens) (UniProt P10721); assay: Inhibition of recombinant human c-Kit expressed in insect High-5 cells assessed as remaining activity at 10 uM preincubated for 15 mins followed by poly(Glu:Tyr) substrate addition for 30 mins in presence of [gamma-32P]ATP by […] assay; conditions: BTI-TN-5B1-4
Sequence of Mast/stem cell growth factor receptor Kit (Homo sapiens) (P10721 whole entry): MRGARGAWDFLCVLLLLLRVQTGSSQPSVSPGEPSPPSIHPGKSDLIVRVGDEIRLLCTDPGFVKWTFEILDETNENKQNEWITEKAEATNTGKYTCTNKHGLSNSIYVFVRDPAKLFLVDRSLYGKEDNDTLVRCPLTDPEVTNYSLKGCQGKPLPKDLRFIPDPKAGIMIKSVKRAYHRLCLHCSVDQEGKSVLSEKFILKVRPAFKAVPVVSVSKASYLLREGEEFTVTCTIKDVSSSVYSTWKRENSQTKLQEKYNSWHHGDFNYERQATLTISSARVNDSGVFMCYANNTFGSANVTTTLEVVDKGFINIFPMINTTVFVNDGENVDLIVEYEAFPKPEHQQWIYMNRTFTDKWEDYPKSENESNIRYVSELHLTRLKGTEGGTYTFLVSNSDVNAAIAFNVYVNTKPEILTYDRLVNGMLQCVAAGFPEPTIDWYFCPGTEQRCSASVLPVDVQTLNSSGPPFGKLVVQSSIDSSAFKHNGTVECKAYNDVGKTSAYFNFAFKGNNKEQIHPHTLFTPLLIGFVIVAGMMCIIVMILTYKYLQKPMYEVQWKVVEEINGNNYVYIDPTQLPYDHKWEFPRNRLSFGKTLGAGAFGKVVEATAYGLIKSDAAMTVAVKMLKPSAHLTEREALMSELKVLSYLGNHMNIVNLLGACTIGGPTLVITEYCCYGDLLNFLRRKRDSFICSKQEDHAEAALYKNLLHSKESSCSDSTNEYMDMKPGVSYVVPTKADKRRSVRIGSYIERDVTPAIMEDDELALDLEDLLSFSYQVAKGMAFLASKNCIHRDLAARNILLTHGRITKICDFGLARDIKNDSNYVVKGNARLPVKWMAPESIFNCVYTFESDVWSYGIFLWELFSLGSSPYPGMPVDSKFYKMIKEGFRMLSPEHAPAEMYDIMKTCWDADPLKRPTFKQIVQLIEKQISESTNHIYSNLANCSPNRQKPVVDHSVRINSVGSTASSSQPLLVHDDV

[2] = target: Receptor tyrosine-protein kinase erbB-2 (Homo sapiens) (UniProt P04626); assay: Inhibition of recombinant human ERBB2 expressed in insect cells assessed as remaining activity at 10 uM preincubated for 15 mins followed by poly(Glu:Tyr) substrate addition for 30 mins in presence of [gamma-32P]ATP by […] assay
Sequence of Receptor tyrosine-protein kinase erbB-2 (Homo sapiens) (P04626 whole entry): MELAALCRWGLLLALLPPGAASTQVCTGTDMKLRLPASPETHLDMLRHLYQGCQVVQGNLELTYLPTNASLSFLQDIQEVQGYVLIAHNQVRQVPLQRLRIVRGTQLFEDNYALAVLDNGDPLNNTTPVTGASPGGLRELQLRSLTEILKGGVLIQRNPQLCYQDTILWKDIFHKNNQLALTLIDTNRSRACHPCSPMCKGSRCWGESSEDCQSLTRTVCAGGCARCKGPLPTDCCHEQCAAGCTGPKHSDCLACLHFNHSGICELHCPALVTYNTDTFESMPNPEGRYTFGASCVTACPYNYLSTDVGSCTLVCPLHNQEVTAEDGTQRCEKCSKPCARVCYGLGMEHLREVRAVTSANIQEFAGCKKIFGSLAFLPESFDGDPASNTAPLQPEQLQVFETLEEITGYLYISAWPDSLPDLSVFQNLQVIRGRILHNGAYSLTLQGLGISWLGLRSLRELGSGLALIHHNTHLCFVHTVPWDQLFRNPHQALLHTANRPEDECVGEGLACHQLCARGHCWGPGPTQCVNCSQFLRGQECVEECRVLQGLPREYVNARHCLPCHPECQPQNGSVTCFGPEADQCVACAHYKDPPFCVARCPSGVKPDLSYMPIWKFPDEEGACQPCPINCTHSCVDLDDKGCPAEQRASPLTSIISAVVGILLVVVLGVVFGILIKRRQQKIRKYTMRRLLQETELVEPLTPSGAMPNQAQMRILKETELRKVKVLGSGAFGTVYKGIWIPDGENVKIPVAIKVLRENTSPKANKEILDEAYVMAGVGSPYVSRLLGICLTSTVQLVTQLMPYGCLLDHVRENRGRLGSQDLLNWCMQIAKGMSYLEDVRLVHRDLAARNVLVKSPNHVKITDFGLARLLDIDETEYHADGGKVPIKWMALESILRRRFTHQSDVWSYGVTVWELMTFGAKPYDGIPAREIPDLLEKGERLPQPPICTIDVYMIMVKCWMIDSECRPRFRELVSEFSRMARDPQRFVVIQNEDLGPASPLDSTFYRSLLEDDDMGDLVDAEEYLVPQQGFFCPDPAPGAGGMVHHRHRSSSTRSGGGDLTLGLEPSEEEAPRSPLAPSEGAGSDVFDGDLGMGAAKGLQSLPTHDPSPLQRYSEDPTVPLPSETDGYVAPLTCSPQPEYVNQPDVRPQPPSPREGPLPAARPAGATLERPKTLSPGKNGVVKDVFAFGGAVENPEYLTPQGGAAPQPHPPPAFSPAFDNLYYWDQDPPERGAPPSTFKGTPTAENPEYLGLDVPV

[3] = target: PI3-kinase p110-delta/p85-alpha (Homo sapiens) (UniProt P27986+O00329); assay: Inhibition of PI3K p110delta/p85alpha (unknown origin) assessed as remaining activity at 10 uM in presence of [gamma-32P]ATP by […] assay; assay type: protein-complex assay
[4] = target: Tyrosine-protein kinase BTK (Homo sapiens) (UniProt Q06187); assay: Inhibition of recombinant human BTK expressed in insect Sf21 cells assessed as remaining activity at 10 uM preincubated for 15 mins followed by poly(Glu:Tyr) substrate addition for 30 mins in presence of [gamma-32P]ATP by […] assay
[5] = target: Tyrosine-protein kinase Blk (Homo sapiens) (UniProt P51451); assay: Inhibition of BLK (unknown origin) assessed as remaining activity at 10 uM preincubated for 15 mins followed by substrate addition for 30 mins in presence of [gamma-32P]ATP by […] assay
[6] = target: Serine/threonine-protein kinase pim-1 (Homo sapiens) (UniProt P11309); assay: Inhibition of recombinant human PIM1 expressed in Escherichia coli assessed as remaining activity at 10 uM preincubated for 15 mins followed by S6 kinase/Rsk2 substrate peptide 2 addition for 30 mins in presence of [gamma-32P]ATP by […] assay
Angiopoietin-1 receptor = Angiopoietin-1 receptor (Homo sapiens, UniProt Q02763); assay: Inhibition of human TIE2 preincubated for 15 mins followed by substrate addition measured after 30 mins in presence of [gamma-32P]ATP by […] assay
[7] = Metabolic stability in human liver microsomes assessed as compound remaining at 1 uM after 30 mins in presence of NADPH by HPLC-MS analysis; assay type: ADME; conditions: read-out: Stability
[8] = target: Ribosomal protein S6 kinase alpha-5 (Homo sapiens) (UniProt O75582); assay: Inhibition of recombinant human MSK1 expressed in insect Sf21 cells assessed as remaining activity at 10 uM preincubated for 15 mins followed by Crosstide KK substrate addition for 30 mins in presence of [gamma-32P]ATP by […] assay
Sequence of Ribosomal protein S6 kinase alpha-5 (Homo sapiens) (O75582 whole entry, looked up): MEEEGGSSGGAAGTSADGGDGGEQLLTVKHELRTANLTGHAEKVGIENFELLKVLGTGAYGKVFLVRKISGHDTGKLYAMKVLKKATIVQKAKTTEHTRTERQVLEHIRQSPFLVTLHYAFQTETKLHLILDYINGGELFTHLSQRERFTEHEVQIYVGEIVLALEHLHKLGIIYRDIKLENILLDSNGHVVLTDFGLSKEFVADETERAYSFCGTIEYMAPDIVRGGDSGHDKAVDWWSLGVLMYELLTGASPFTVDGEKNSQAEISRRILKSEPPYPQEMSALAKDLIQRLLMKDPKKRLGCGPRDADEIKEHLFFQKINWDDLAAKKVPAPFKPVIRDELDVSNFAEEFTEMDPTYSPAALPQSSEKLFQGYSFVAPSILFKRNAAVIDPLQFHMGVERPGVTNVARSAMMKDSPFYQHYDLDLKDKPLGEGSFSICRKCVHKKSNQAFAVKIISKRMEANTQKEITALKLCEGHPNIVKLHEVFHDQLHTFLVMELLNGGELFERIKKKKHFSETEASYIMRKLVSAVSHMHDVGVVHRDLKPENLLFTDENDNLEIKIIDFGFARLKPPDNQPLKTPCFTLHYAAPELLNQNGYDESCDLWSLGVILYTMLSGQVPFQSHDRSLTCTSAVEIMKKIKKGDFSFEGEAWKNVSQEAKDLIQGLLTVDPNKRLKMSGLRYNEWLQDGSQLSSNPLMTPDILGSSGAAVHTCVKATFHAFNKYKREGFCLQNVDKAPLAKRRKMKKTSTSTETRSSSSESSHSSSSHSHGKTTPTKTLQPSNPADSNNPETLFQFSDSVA

[9] = target: PI3K p110 beta/p85 alpha (Homo sapiens) (UniProt P27986+P42338); assay: Inhibition of PI3K p110beta/p85alpha (unknown origin) assessed as remaining activity at 10 uM in presence of [gamma-32P]ATP by […] assay; assay type: protein-complex assay
[10] = target: Fibroblast growth factor receptor 1 (Homo sapiens) (UniProt P11362); assay: Inhibition of recombinant human FGFR1 expressed in insect Sf21 cells assessed as remaining activity at 10 uM preincubated for 15 mins followed by poly(Glu:Tyr) substrate addition for 30 mins in presence of [gamma-32P]ATP by […] assay
[11] = target: Tyrosine-protein kinase ABL2 (Homo sapiens) (UniProt P42684); assay: Inhibition of human recombinant ARG expressed in sf21 cells assessed as remaining activity at 10 uM preincubated for 15 mins followed by Poly(Glu:Tyr) addition measured after 30 mins in presence of [gamma-32P]ATP by […] assay
[12] = target: MAP kinase-activated protein kinase 2 (Homo sapiens) (UniProt P49137); assay: Inhibition of recombinant human MAPKAPK2 expressed in Escherichia coli assessed as remaining activity at 10 uM preincubated for 15 mins followed by MAPKAPK substrate peptide addition for 30 mins in presence of [gamma-32P]ATP by […] assay
[13] = target: Inhibitor of nuclear factor kappa-B kinase subunit alpha (Homo sapiens) (UniProt O15111); assay: Inhibition of recombinant human IKK-alpha expressed in insect Sf21 cells assessed as remaining activity at 10 uM preincubated for 15 mins followed by IKKtide substrate addition for 30 mins in presence of [gamma-32P]ATP by […] assay
Sequence of Inhibitor of nuclear factor kappa-B kinase subunit alpha (Homo sapiens) (O15111 whole entry): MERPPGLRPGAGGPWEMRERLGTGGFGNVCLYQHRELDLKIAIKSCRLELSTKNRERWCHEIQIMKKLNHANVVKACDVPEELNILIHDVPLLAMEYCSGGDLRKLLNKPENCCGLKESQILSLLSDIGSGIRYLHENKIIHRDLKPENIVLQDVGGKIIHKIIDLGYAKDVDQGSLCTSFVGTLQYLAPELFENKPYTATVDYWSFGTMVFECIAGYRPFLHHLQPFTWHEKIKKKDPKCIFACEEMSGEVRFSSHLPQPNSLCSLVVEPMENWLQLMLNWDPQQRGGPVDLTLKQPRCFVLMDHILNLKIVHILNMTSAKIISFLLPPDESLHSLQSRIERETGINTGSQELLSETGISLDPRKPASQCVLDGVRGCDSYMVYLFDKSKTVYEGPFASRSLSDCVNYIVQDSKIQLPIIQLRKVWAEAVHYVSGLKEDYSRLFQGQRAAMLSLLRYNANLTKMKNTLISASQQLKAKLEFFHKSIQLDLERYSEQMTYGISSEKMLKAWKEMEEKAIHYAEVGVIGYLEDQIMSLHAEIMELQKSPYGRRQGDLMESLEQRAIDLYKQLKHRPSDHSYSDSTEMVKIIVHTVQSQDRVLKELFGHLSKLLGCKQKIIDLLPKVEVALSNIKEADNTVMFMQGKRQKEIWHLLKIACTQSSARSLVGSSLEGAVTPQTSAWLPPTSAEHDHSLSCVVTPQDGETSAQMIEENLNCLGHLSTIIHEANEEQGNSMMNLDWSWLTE

[14] = target: Platelet-derived growth factor receptor alpha (Homo sapiens) (UniProt P16234); assay: Inhibition of recombinant human PDGFR-alpha expressed in insect Sf21 cells assessed as remaining activity at 10 uM preincubated for 15 mins followed by poly(Glu:Tyr) substrate addition for 30 mins in presence of [gamma-32P]ATP by […] assay
Sequence of Platelet-derived growth factor receptor alpha (Homo sapiens) (P16234 whole entry): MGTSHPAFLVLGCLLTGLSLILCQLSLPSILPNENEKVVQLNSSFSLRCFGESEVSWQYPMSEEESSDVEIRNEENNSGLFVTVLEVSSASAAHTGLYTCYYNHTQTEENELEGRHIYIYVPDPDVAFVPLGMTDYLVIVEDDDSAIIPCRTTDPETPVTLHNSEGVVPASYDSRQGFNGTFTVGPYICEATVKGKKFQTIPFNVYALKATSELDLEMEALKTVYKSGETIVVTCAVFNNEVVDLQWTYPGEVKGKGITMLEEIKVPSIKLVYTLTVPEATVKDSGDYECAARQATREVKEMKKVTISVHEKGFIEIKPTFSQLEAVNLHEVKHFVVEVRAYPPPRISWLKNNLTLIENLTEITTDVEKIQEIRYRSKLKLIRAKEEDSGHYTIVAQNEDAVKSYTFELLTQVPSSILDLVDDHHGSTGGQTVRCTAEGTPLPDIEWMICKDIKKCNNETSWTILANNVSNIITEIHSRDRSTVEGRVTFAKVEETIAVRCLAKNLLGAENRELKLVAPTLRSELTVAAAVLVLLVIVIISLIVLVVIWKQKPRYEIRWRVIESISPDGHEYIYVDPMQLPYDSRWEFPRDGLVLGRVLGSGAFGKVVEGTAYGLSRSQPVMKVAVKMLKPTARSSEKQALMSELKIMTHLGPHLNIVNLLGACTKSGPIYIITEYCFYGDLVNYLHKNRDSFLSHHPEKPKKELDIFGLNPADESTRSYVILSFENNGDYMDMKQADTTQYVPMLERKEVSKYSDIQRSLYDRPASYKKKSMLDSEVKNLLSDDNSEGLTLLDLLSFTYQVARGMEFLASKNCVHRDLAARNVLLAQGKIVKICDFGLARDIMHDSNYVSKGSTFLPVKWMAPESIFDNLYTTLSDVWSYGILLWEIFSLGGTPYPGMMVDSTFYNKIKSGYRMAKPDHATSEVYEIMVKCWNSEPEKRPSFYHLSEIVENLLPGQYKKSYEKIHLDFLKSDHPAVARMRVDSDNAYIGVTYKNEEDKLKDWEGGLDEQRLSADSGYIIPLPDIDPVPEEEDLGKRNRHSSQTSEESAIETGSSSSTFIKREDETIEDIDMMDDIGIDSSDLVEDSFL

[15] = target: Vascular endothelial growth factor receptor 3 (Homo sapiens) (UniProt P35916); assay: Inhibition of recombinant human FLT4 expressed in insect cells assessed as remaining activity at 10 uM preincubated for 15 mins followed by poly(Glu:Tyr) substrate addition for 30 mins in presence of [gamma-32P]ATP by […] assay
cells = conditions: Homo sapiens, THP-1, 48 h
Description: Growth inhibition of human THP1 cells expressing wild type FLT-3 after 48 hrs by XTT assay

[16] = target: Dual specificity mitogen-activated protein kinase kinase 1 (Homo sapiens) (UniProt Q02750); assay: Inhibition of recombinant human MEK1 expressed in Escherichia coli assessed as remaining activity at 10 uM preincubated for 15 mins followed by myelin basic protein substrate addition for 30 mins in presence of [gamma-32P]ATP by […] assay

**Q.** What does the source list for `CNCCOc1ccc(-c2sc3nc(-c4cccs4)nc(NN4C(=O)C=C(C)C4=O)c3c2C)cc1.Cl`?
**A.** Activity [1]: 75%; Activity [2]: 89%; Activity [3]: 37%; Activity [4]: 83%; Activity [5]: 35%; Activity [6]: 46%; IC50 (Angiopoietin-1 receptor): 9.75 µM; remaining at 0.5 h, 1 µM [7]: 79.8%; Activity [8]: 110%; Activity [9]: 70%; Activity [10]: 53%; Activity [11]: 52%; Activity [12]: 63 to 100%; Activity [13]: 101%; Activity [14]: 115%; Activity [15]: 24%; GI50 (cells): 0.559 µM; Activity [16]: 103%
